Experimental data from US11174260B2, “Compounds and methods for the treatment of parasitic diseases” (THE BROAD INSTITUTE, INC., priority 2017, dated 2021).
Like-named read-outs stand apart in the source and are kept apart here.

Columns and labels:
P. falciparum Dd2 = assay: In vitro P. falciparum blood-stage culture and assay; format: cell-based; conditions: 72 h incubation, SYBR Green I readout, read-out: Pf Dd2
Method: Strains of P. falciparum (Dd2, 3D7, D6, K1, NF54, V1/3, HB3, 7G8, FCB and TM90C2B) were obtained from the Malaria Research and Reference Reagent Resource Center (MR4). P. falciparum isolates were maintained with O-positive human blood in an atmosphere of 93% N2, 4% CO2, 3% O2 at 37° C. in complete culturing medium (10.4 g/L RPMI 1640, 5.94 g/L HEPES, 5 g/L albumax II, 50 mg/L hypoxanthine, 2.1 g/L sodium bicarbonate, 10% human serum and 43 mg/L gentamicin). Parasites were cultured in medium until parasitaemia reached 3-8%. Parasitaemia was determined by checking at least 500 red blood cells from a Giemsa-stained blood smear. For the compound screening, a parasite dilution at 2.0% parasitaemia and 2.0% haematocrit was created with medium. 25 μl of medium was dispensed into 384-well black, clear-bottom plates and 100 nl of each compound in DMSO was transferred into assay plates along with the control compound (mefloquine). Next, 25 μl of the parasite suspension in medium was dispensed into the assay plates giving a final parasitaemia of 1% and a final haematocrit of 1%. The assay plates were incubated for 72 h at 37° C. 10 μl of detection reagent consisting of 10×SYBR Green I (Invitrogen; supplied in 10,000× concentration) in lysis buffer (20 mM Tris-HCl, 5 mM EDTA, 0.16% (w/v) Saponin, 1.6% (v/v) Triton X-100) was dispensed into the assay plates. For optimal staining, the assay plates were left at room temperature for 24 h in the dark. The assay plates were read with 505 dichroic mirrors with 485 nm excitation and 530 nm emission settings in an Envision (PerkinElmer).

C. parvum = C. parvum in vitro EC50 assay; format: cell-based; conditions: Cryptosporidium parvum; C. parvum oocysts in HCT-8 cells
Method: Human ileocecal adenocarcinoma (HCT-8) cells were obtained from ATCC and maintained in T-75 tissue culture flasks with RPMI 1640 medium with HEPES, sodium pyruvate (1 mM), and L-glutamine (ATCC) supplemented with 10% horse serum (ATCC) and 120 U/ml penicillin and 120 μg/ml streptomycin. Cells were plated into 384-well, tissue culture-treated, black-walled, clearbottom microwell plates (BD Falcon) at a density of 8,850 cells/well and allowed to grow to confluence. They were then inoculated with 5.5×10^3 primed C. parvum oocysts (Bunchgrass Farms, Deary, Id.) suspended in inoculation medium (RPMI 1640 without horse serum). Oocysts were primed for excystation by following a previously described protocol (J. Eukaryot. Microbiol. 46:56S-57S). Briefly, oocysts were treated for 10 min with 10 mM HCl at 37° C., centrifuged, and treated with a 2 mM solution of sodium taurocholate (Sigma-Aldrich) in phosphate-buffered saline (PBS) with Ca^2+ and Mg^2+. The suspension was incubated for 10 min at 16° C. and then diluted in inoculation medium and added to each well. Infected cells were incubated at 37° C. for 3 h, at which point an equal volume of growth medium containing 20% horse serum (total serum concentration of 10%). Compounds were diluted and assayed at fixed doses of 0.12, 0.37, 1.1, 3.3, and 10 μM (each concentration, n=14) for the generation of EC50 curves. In the case of final EC50 curves, three wells were left uninfected but treated with each of the corresponding concentrations of the compound to assess for background staining. All curves were generated using the log[inhibitor] versus response_variable slope equation in GraphPad Prism (equation 3), with the bottom constraint set equal to 0.

[1] = Plasmodium falciparum, DD2, 72 h

Q: How did the EC50 (P. falciparum Dd2; [1]) turn out when `COc1ccc(NC(=O)N2CC[C@H](O)CN3[C@H](CN(C)C)[C@H](c4ccc(C#Cc5ccccc5)cc4)[C@@H]3C2)cc1` [Example E15, (3S,8R,9S,10S)-10-[(dimethylamino)methyl]-3-hydroxy-N-(4-methoxyphenyl)-9-[4-(2-phenylethynyl)phenyl]-1,6-diazabicyclo[6.2.0]decane-6-carboxamide] was run?
A: < 50 nM

Q: What about the EC50 (C. parvum) of the same molecule?
A: 33 nM

Q: How did the EC50 (P. falciparum Dd2; [1]) turn out when `COc1ccc(NC(=O)N2C/C=C\CN3[C@H](CN(C)C)[C@H](c4ccc(C#Cc5ccccc5)cc4)[C@@H]3C2)cc1` [Example E4, (3Z,8R,9S,10S)-10-[(dimethylamino)methyl]-N-(4-methoxyphenyl)-9-[4-(2-phenylethynyl)phenyl]-1,6-diazabicyclo[6.2.0]dec-3-ene-6-carboxamide] was run?
A: < 50 nM

Q: And the EC50 (C. parvum)?
A: 68 nM

Q: How did the EC50 (P. falciparum Dd2; [1]) turn out when `COc1ccc(NC(=O)N2CCC(CN(C)C)CN3[C@H](CO)[C@H](c4ccc(C#Cc5ccccc5)cc4)[C@@H]3C2)cc1` (stereo partly drawn) [Example E27, (8R,9R,10S)-3-[(dimethylamino)methyl]-10-(hydroxymethyl)-N-(4-methoxyphenyl)-9-[4-(2-phenylethynyl)phenyl]-1,6-diazabicyclo[6.2.0]decane-6-carboxamide] was run?
A: < 50 nM

Q: What about the EC50 (C. parvum) of the same molecule?
A: 134 nM

Q: How did the EC50 (P. falciparum Dd2; [1]) turn out when `COc1ccc(NC(=O)N2CCC(CO)CN3[C@H](CN(C)C)[C@H](c4ccc(C#Cc5ccccc5)cc4)[C@@H]3C2)cc1` (stereo partly drawn) [Example E26, (8R,9S,10S)-10-[(dimethylamino)methyl]-3-(hydroxymethyl)-N-(4-methoxyphenyl)-9-[4-(2-phenylethynyl)phenyl]-1,6-diazabicyclo[6.2.0]decane-6-carboxamide] was run?
A: < 50 nM

Q: And the EC50 (C. parvum)?
A: 98 nM

Q: `COc1ccc(NC(=O)N2CCCC(C)N3[C@H](CO)[C@H](c4ccc(C#Cc5ccccc5)cc4)[C@@H]3C2)cc1` (stereo partly drawn) [Example E35, (8R,9R,10S)-10-(hydroxymethyl)-N-(4-methoxyphenyl)-2-methyl-9-[4-(2-phenylethynyl)phenyl]-1,6-diazabicyclo[6.2.0]decane-6-carboxamide] was tested. Which EC50 (P. falciparum Dd2; [1]) did it give?
A: < 50 nM

Q: How did the EC50 (P. falciparum Dd2; [1]) turn out when `COc1ccc(NC(=O)N2C[C@H](O)[C@H](O)CN3[C@H](CN(C)C)[C@H](c4ccc(C#Cc5cccc(F)c5F)cc4)[C@@H]3C2)cc1` [Example E13, (3R,4S,8R,9S,10S)-9-[4-[2-(2,3-difluorophenyl)ethynyl]phenyl]-10-[(dimethylamino)methyl]-3,4-dihydroxy-N-(4-methoxyphenyl)-1,6-diazabicyclo[6.2.0]decane-6-carboxamide] was run?
A: < 50 nM

Q: For `COc1ccc(NC(=O)N2CCCC(C)N3[C@H](CN(C)C)[C@H](c4ccc(C#Cc5ccccc5)cc4)[C@@H]3C2)cc1` (stereo partly drawn) [Example E34, (8R,9S,10S)-10-((dimethylamino)methyl)-N-(4-methoxyphenyl)-2-methyl-9-(4-(phenylethynyl)phenyl)-1,6-diazabicyclo[6.2.0]decane-6-carboxamide], which EC50 (P. falciparum Dd2; [1]) is on record?
A: < 50 nM

Q: `COc1ccc(NC(=O)N2C[C@@H](O)[C@@H](O)CN3C[C@H](c4ccc(C#Cc5ccccc5)cc4)[C@@H]3C2)cc1` [Example E36, (3S,4R,8R,9S)-3,4-dihydroxy-N-(4-methoxyphenyl)-9-[4-(2-phenylethynyl)phenyl]-1,6-diazabicyclo[6.2.0]decane-6-carboxamide] was tested. Which EC50 (P. falciparum Dd2; [1]) did it give?
A: 50 to 250 nM

Q: And the EC50 (C. parvum)?
A: 6 nM

Q: For `COc1ccc(NC(=O)N2C[C@H](N(C)C)CCN3[C@H](CO)[C@H](c4ccc(C#Cc5ccccc5)cc4)[C@@H]3C2)cc1` [Example E30, (4R,8R,9R,10S)-4-(dimethylamino)-10-(hydroxymethyl)-N-(4-methoxyphenyl)-9-(4-(phenylethynyl)phenyl)-1,6-diazabicyclo[6.2.0]decane-6-carboxamide], which EC50 (P. falciparum Dd2; [1]) is on record?
A: > 250 nM

Q: For `COc1ccc(NC(=O)N2CCC(O)CN3[C@H](CN(C)C)[C@H](c4ccc(C#Cc5ccccc5)cc4)[C@@H]3C2)cc1` (single isomer, unassigned) [Example E17], which EC50 (P. falciparum Dd2) is on record?
A: < 50 nM

Q: For `COc1ccc(NC(=O)N2C[C@H](O)[C@H](O)CN3[C@H](CN(C)C)[C@H](c4ccc(C#Cc5ccccc5)cc4)[C@@H]3C2)cc1` [Example E6, (3R,4S,8R,9S,10S)-10-((dimethylamino)methyl)-3,4-dihydroxy-N-(4-methoxyphenyl)-9-(4-(phenylethynyl)phenyl)-1,6-diazabicyclo[6.2.0]decane-6-carboxamide], which EC50 (P. falciparum Dd2; [1]) is on record?
A: < 50 nM

Q: And the EC50 (C. parvum)?
A: 95 nM
